Converted amounts (≈) assume the structure as drawn.
Assays:
[1] = system: E. coli JM83 cells harboring pUC19; test: Minimum inhibitory concentrations on LB plates, cells harboring pUC19; format: cell-based; conditions: Escherichia coli, cells with pUC19, 37 °C, 20 h, same for 3.5 × 10^5 and 3.5 × 10^3 cells
Procedure: (§1) The E. coli wild-type cells harboring pUC19 or pSP007 plasmid were grown overnight in LB medium containing ampicillin. The cells were diluted 10- and 1000-times, and 5 µl of each dilution (corresponding to 3.5×10^5 cells and 3.5×10^3 cells, respectively) was spotted on LB plates containing serial dilutions of kanamycin, chloramphenicol, spectinomycin, tetracycline and DHCP. Plates were incubated at 37° C. for 20 h. […] The MIC values for cells harboring pUC19 and pSP007 were same for spectinomycin, chloramphenicol and tetracycline. The MIC value was two times higher for kanamycin for the cells harboring pSP007 than the cells with pUC19. The MIC value for DHCP on the other hand was 8 times higher for the cells-harboring pSP007 than that for the cells with pUC19.
(§2) MICs for both dilutions of the cells (3.5×10^5 and 3.5×10^3) were the same.

[2] = system: E. coli JM83 cells harboring pSP007; test: Minimum inhibitory concentrations on LB plates, cells harboring pSP007 (dep, ORF389); format: cell-based, Escherichia coli; conditions: for MIC: Escherichia coli, cells with pSP007, LB plates, 37 °C, 20 h, same for 3.5 × 10^5 and 3.5 × 10^3 cells; for MIC value for cells harboring pSP007 relative to cells with pUC19: pSP007 versus pUC19
Procedure: as §1, §2

[3] = system: E. coli wild-type strain JM83; test: Effect of DHCP on the growth of E. coli in LB medium (Klett units); format: cell-based, Escherichia coli; conditions: for effect on growth: LB medium
Procedure: (§3) A. The JM83 cells were grown in LB medium up to Klett unit of 50 and DHCP was added at various concentrations (0-400 µM). After the growth reached to Klett unit of 90-100, cells were diluted with medium containing respective concentrations of DHCP and growth was further monitored. DHCP concentration: 0 . mu.M, open squares; 50 . mu.M, closed diamonds; 100 µM, open circles; 250 . mu.M, open diamonds; 400 . mu.M closed squares. [0023] B. Overnight grown cells of E. coli JM83 were diluted appropriately and plated on LB plates containing different concentrations of DHCP (0-350 . mu.M). The number of colonies on the plate without DHCP was taken as 100% and the other numbers were expressed as relative percentages.
The E. coli wild-type strain JM83 [F^-araΔ (lac-proAB) rpsL(st^r)](Yanisch-Perron et al., 1985) was grown in Luria broth (LB). Media were supplemented with ampicillin (final concentration of 50 . mu.g/ml) whenever required. To check the effect of DHCP on the growth of E. coli, cells grown overnight in LB medium were diluted into fresh LB medium. After the growth reached to the Klett unit of 50, DHCP was added at various concentrations (0-400 . mu.M) and growth was further monitored. After it reached to the Klett unit of 90-100, it was diluted I O-fold into media containing respective concentrations of DHCP. […] In the presence of 400 . mu.M DHCP, cell growth stopped after 4 h of incubation.

E. coli JM83 = test: Colony formation ability of E. coli on LB plates containing DHCP; format: cell-based, Escherichia coli
Procedure: as §3
To check the colony formation ability of E. coli at various concentrations of DHCP, cells grown overnight in LB medium were diluted appropriately and plated on LB plates containing DHCP (0-350 . mu.M). After incubation at 37. degree. C., the number of colonies on each plate were counted. The number of colonies on the control plate without DHCP was taken as 100% and the other numbers were expressed as relative percentages (FIG. 2B). In the presence of 300 µM DHCP, 100-fold decrease in the colony numbers was observed.

| Structure (SMILES) | MIC [1] | MIC [2] | MIC value for cells harboring pSP007 relative to cells with pUC19 [2] | further results |
| --- | --- | --- | --- | --- |
| O=C1C=CC(O)C1O (stereo not drawn) [DHCP, 4,5-dihydroxy-2-cyclopenten-1-one] | 25 mg/L (≈ 219 µM) | 200 mg/L (≈ 1750 µM) | 8 times | effect on growth ([3]; 50 μM DHCP): growth was slowed after 3 h of incubation; time to reach the maximum density ([3]; 50 μM DHCP, similar to that without DHCP): 8 h; effect on growth ([3]; 100 μM DHCP): grew more slowly after 3 h incubation; maximum cell density ([3]; 100 μM DHCP, versus without DHCP): lower than that without DHCP; time after which cells stopped growing ([3]; 250 μM DHCP): 5 h; length of elongated cells (filaments) relative to control cells ([3]; 250 μM DHCP for 8 h, microscopic examination): approximately 15 fold; effect on growth ([3]; 250 μM DHCP): growth was severely impaired after 3 h of incubation; time after which cell growth stopped ([3]; 400 μM DHCP): 4 h; decrease in the colony numbers (E. coli JM83; 300 μM DHCP, LB plates, 37 °C): 100 fold; colony formation (E. coli JM83; 350 μM DHCP, 1×10^4 cells plated on LB medium): no colonies were obtained; concentration at which DHCP inhibits cell growth (E. coli JM83; E. coli): ≥ 350 µM |
| O=C(N[C@H](CO)[C@H](O)c1ccc([N+](=O)[O-])cc1)C(Cl)Cl [chloramphenicol] | 6.25 mg/L (≈ 19.3 µM) | 6.25 mg/L (≈ 19.3 µM) | same | – |
| NC[C@H]1O[C@H](O[C@H]2[C@H](O)[C@@H](O[C@H]3O[C@H](CO)[C@@H](O)[C@H](N)[C@H]3O)[C@H](N)C[C@@H]2N)[C@H](O)[C@@H](O)[C@@H]1O [kanamycin] | 25 mg/L (≈ 51.6 µM) | 50 mg/L (≈ 103 µM) | – | – |
| CN[C@@H]1[C@H](O)[C@H](NC)[C@H]2O[C@@]3(O)C(=O)C[C@@H](C)O[C@H]3O[C@@H]2[C@H]1O [spectinomycin] | 12.5 mg/L (≈ 37.6 µM) | 12.5 mg/L (≈ 37.6 µM) | same | – |
| CN(C)[C@@H]1C(O)=C(C(N)=O)C(=O)[C@@]2(O)C(O)=C3C(=O)c4c(O)cccc4[C@@](C)(O)[C@H]3C[C@@H]12 [tetracycline] | 3.12 mg/L (≈ 7.03 µM) | 3.12 mg/L (≈ 7.03 µM) | – | – |
